Test results taken from PubChem BioAssay AID1963831 (Molecular Pharmacology Branch, DTP, NCI, 2024).
Several values for one entry are separate records, joined by “and”; a condition that tells them apart may be missing. Equal entries are not always repeated.

System: 889142-216-R-J1-PDC complex spheroid viability
Assay: Anticancer human tumor 889142-216-R-J1-PDC patient-derived bladder carcinoma cell line growth inhibition [POLQ]
Details: for viability, T/C: stronger effect = lower value
Protocol: Multicellular complex tumor spheroid response to Polymerase (POL) inhibitors (novobiocin, ART-558, RP6685) in combination with a variety of drugs and investigational agents in selected tumor cell lines
The POL inhibitors (novobiocin, ART-558, and RP6685) were evaluated both individually and in combination with standard of care and investigational anticancer small molecules within a complex spheroid model of solid tumors. . Complex spheroids include a stromal component modeled by human endothelial cells (HUVEC) and fibroblasts modeled by human mesenchymal stem cells (MSCs). The concentration ranges selected for each drug and investigational agent were based upon clinically achievable concentrations if the clinical Cmax of the agent was known.
Compounds. The drugs and investigational agents: novobiocin (NSC847541), ART-558 (NSC835418), RP-6685 (NSC848927), peposertib (NSC802822), ceralasertib (NSC780249), elimusertib (NSC800525), camonsertib (NSC841442), AZD-1390 (NSC803789), olaparib (NSC753686), talazoparib (NSC767125), rucaparib (NSC756644), sotorasib (NSC818433), MRTX-1133 (NSC836407), SN-38 (NSC673596), topotecan (NSC609699), epotoside (NSC141540), doxorubicin (NSC123127), gemcitabine (NSC613327), 5-fluorouracil (NSC19893), paclitaxel (NSC125973), vemurafenib (NSC761431), MSA-2 (NSC828583), SN-011 (NSC837082), adavosertib (NSC754352), prexasertib (NSC758257), carboplatin (NSC241240) and oxaliplatin (NSC266046), were obtained from the National Cancer Institute (NCI) Developmental Therapeutics Program Chemical Repository (21). The FDA-approved anticancer drug set is available from the Developmental Therapeutics Program at https://dtp.cancer.gov/organization/dscb/obtaining/. […] The stock solutions were prepared in dimethyl sulfoxide (DMSO, Sigma-Aldrich, St. Louis, MO, cat. D2650), except for the platinum compounds which were prepared in saline (Quality Biological, Gaithersburg, MD, cat. 114-055-101), at 800-fold the tested concentration and stored at -70 degrees C prior to their use. All drugs and investigational agents were tested over a range starting from a high concentration at or near the clinical Cmax and decreasing in half-log increments. If the clinical Cmax for an agent had not been determined, the highest concentration tested was 10 microM, except for SN-38, which was tested at a high concentration of 1 microM.
Cell Culture. All cells were maintained in an incubator at 37 degrees C and 5% CO2 with 95% humidity. The PDC lines were cultured according to standard operating procedures established by the NCI PDMR (https://pdmr.cancer.gov). Table 3 of the manuscript, lists the cell lines along with the number of the three cell types plated to form the mct-spheroids and media for tumor cell growth. After thawing, all PDC lines, except 997537-175-T-J1-PDC and 415267-285-R-J2-PDC, were cultured in Matrigel-coated flasks prepared with a working solution of 1X Ham's F-12 nutrient mix, without supplementation (Thermo Fisher Scientific, cat. 11765054), 100 U/mL penicillin-streptomycin (Thermo Fisher Scientific, cat. 15140122), and 2.5% Matrigel (Corning Inc., Corning, NY, cat. 354248) for the first three passages. The two PDC lines 997537-175-T-J1-PDC and 415267-285-R-J2-PDC were cultured on uncoated flasks. The 857933-349-R-J2-PDC line was cultured in 6C/Colon 1B media containing advanced DMEM/F-12 (Thermo Fisher Scientific, cat. 12634028), 10 mM HEPES (Thermo Fisher Scientific, cat. 15630080), 1X GlutaMAX supplement (Thermo Fisher Scientific, cat. 35050061), 0.1 mg/mL primocin (InvivoGen, San Diego, CA, cat. ant-pm-2), 10% defined fetal bovine serum, heat inactivated (HyClone Laboratories Inc., Logan, UT, cat. SH30070.03HI), 50% L-WRN conditioned media (ATCC, cat. CRL-3276), 1.25 mM N-Acetyl-L-cysteine (Sigma-Aldrich, cat. A9165), 10 mM nicotinamide (Sigma-Aldrich, cat. N0636), 1X B-27 supplement (Thermo Fisher Scientific, cat. 17504044), 1X N-2 supplement (Thermo Fisher Scientific, cat. […]

[1] = curve of first compound, second compound 0.0316 µM
[2] = curve of first compound, second compound 0.1 µM
[3] = curve of first compound, second compound 0.316 µM
[4] = curve of first compound, second compound 1 µM
[5] = curve of first compound, second compound 3.16 µM
[6] = curve of first compound, second compound 10 µM
[7] = second compound 0.0316 µM, first compound 0.0316 µM
[8] = second compound 0.0316 µM, first compound 0.1 µM
[9] = second compound 0.0316 µM, first compound 0.316 µM
[10] = second compound 0.0316 µM, first compound 1 µM
[11] = second compound 0.0316 µM, first compound 3.16 µM
[12] = second compound 0.0316 µM, first compound 10 µM
[13] = second compound 0.1 µM, first compound 0.0316 µM
[14] = second compound 0.1 µM, first compound 0.1 µM
[15] = second compound 0.1 µM, first compound 0.316 µM
[16] = second compound 0.1 µM, first compound 1 µM
[17] = second compound 0.1 µM, first compound 3.16 µM
[18] = second compound 0.1 µM, first compound 10 µM
[19] = second compound 0.316 µM, first compound 0.0316 µM
[20] = second compound 0.316 µM, first compound 0.1 µM
[21] = second compound 0.316 µM, first compound 0.316 µM
[22] = second compound 0.316 µM, first compound 1 µM
[23] = second compound 0.316 µM, first compound 3.16 µM
[24] = second compound 0.316 µM, first compound 10 µM
[25] = second compound 1 µM, first compound 0.0316 µM
[26] = second compound 1 µM, first compound 0.1 µM
[27] = second compound 1 µM, first compound 0.316 µM
[28] = second compound 1 µM, first compound 1 µM
[29] = second compound 1 µM, first compound 3.16 µM
[30] = second compound 1 µM, first compound 10 µM
[31] = second compound 3.16 µM, first compound 0.0316 µM
[32] = second compound 3.16 µM, first compound 0.1 µM
[33] = second compound 3.16 µM, first compound 0.316 µM
[34] = second compound 3.16 µM, first compound 1 µM
[35] = second compound 3.16 µM, first compound 3.16 µM
[36] = second compound 3.16 µM, first compound 10 µM
[37] = second compound 10 µM, first compound 0.0316 µM
[38] = second compound 10 µM, first compound 0.1 µM
[39] = second compound 10 µM, first compound 0.316 µM
[40] = second compound 10 µM, first compound 1 µM
[41] = second compound 10 µM, first compound 3.16 µM
[42] = second compound 10 µM, first compound 10 µM
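Note: spheroids exposed to compounds for seven days.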
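Throughout, for viability, T/C: 100% = DMSO vehicle control viability.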

With CCc1cc2c(N3CCc4c(cc(Cn5ccnc5)cc4-c4cn(C)nc4C(F)(F)F)C3=O)cc(C)nc2c(OC)n1 + Cc1cccc(N(C)C(=O)C2C(O)CCN2c2nc(C)cc(C(F)(F)F)c2C#N)c1 the IC50 [1] was > 10000 nM, the IC50 [2] was > 10000 nM and the IC50 [3] was > 10000 nM. For the same compound, the IC50 [4] was > 10000 nM, the IC50 [5] was > 10000 nM and the IC50 [6] was > 10000 nM. The viability, T/C [7] was 109%, the viability, T/C [8] was 132% and the viability, T/C [9] was 121%. For the same compound, the viability, T/C [10] was 108%, the viability, T/C [11] was 91.3% and the viability, T/C [12] was 80.8%. It also gave a viability, T/C [13] of 119%, a viability, T/C [14] of 98.8% and a viability, T/C [15] of 105%. It also gave a viability, T/C [16] of 114%, a viability, T/C [17] of 109% and a viability, T/C [18] of 96.8%. For the same compound, the viability, T/C [19] was 113%, the viability, T/C [20] was 111% and the viability, T/C [21] was 137%. For the same compound, the viability, T/C [22] was 137%, the viability, T/C [23] was 130% and the viability, T/C [24] was 83.9%. The viability, T/C [25] was 91%, the viability, T/C [26] was 106% and the viability, T/C [27] was 143%. For the same compound, the viability, T/C [28] was 112%, the viability, T/C [29] was 94.7% and the viability, T/C [30] was 84.3%. For the same compound, the viability, T/C [31] was 104%, the viability, T/C [32] was 121% and the viability, T/C [33] was 114%. The viability, T/C [34] was 94.9%, the viability, T/C [35] was 112% and the viability, T/C [36] was 69.9%. For the same compound, the viability, T/C [37] was 89.2%, the viability, T/C [38] was 88.3% and the viability, T/C [39] was 109%. The viability, T/C [40] was 144%, the viability, T/C [41] was 83.7% and the viability, T/C [42] was 70.8%.
CC1COCCN1c1cc(-c2ccnn2C)c2ccnc(-c3ccn[nH]3)c2n1 (centres undefined) + Nc1ccc(C#CCN(C(=O)Cc2ncc(C(F)(F)F)cc2C(F)(F)F)c2ccc(F)cc2)nn1 showed an IC50 [1] of 386 nM, an IC50 [2] of 349 nM and an IC50 [3] of 349 nM. The IC50 [4] was 133 nM, the IC50 [5] was 353 nM and the IC50 [6] was 557 nM. It also gave a viability, T/C [7] of 69.5%, a viability, T/C [8] of 60.1% and a viability, T/C [9] of 53.7%. For the same compound, the viability, T/C [10] was 41%, the viability, T/C [11] was 32.8% and the viability, T/C [12] was 32.7%. The viability, T/C [13] was 71.8%, the viability, T/C [14] was 60% and the viability, T/C [15] was 48.6%. For the same compound, the viability, T/C [16] was 44.5%, the viability, T/C [17] was 32.2% and the viability, T/C [18] was 24.6%. The viability, T/C [19] was 73.3%, the viability, T/C [20] was 54.6% and the viability, T/C [21] was 52.7%. For the same compound, the viability, T/C [22] was 42.7%, the viability, T/C [23] was 36.6% and the viability, T/C [24] was 25.5%. It also gave a viability, T/C [25] of 77.7%, a viability, T/C [26] of 45.8% and a viability, T/C [27] of 47.8%. The viability, T/C [28] was 39.3%, the viability, T/C [29] was 38.2% and the viability, T/C [30] was 27.3%. The viability, T/C [31] was 62.9%, the viability, T/C [32] was 57.2% and the viability, T/C [33] was 51%. It also gave a viability, T/C [34] of 43.2%, a viability, T/C [35] of 38.9% and a viability, T/C [36] of 32.3%. The viability, T/C [37] was 72.4%, the viability, T/C [38] was 68.2% and the viability, T/C [39] was 56.3%. It also gave a viability, T/C [40] of 42.3%, a viability, T/C [41] of 38.1% and a viability, T/C [42] of 31.7%.
For Cc1cccc(N(C)C(=O)C2C(O)CCN2c2nc(C)cc(C(F)(F)F)c2C#N)c1 (centres undefined), the viability, T/C (compound 3.16 µM) was 94.3% [middle of 13 runs], the IC50 (compound alone, run of 01/08/2024) was > 10000 nM and the IC50 (compound alone, run of 01/19/2024) was > 10000 nM.
With CC[C@@]1(O)C(=O)OCc2c1cc1n(c2=O)Cc2cc3c(CN(C)C)c(O)ccc3nc2-1 the viability, T/C (compound 0.000316 µM) was 110% and 87.5%, the viability, T/C (compound 0.001 µM) was 96.5% and 89.5% and the viability, T/C (compound 0.00316 µM) was 103% and 85.1%. For the same compound, the viability, T/C (compound 0.01 µM) was 91.3% and 89.6%, the viability, T/C (compound 0.0316 µM) was 60.9% and 63.7% and the viability, T/C (compound 0.1 µM) was 60.2% and 49.3%. The IC50 (curve of compound) was > 100 nM and 94.7 nM.
